Earlier results in US20190000808A1, “COMPOSITION AND METHODS FOR THE TREATMENT OF BLEPHOPHAROPTOSIS” (Allergan, Inc., priority 2015, published 2019).

Key:
[1] = tested on: alpha-1 adrenergic receptors on Muller's muscle; settings: single drop, typically 2.5%; temporary reversal of ptosis
[2] = tested on: accommodation of the eye

In the case of `CNC[C@H](O)c1cccc(O)c1` [phenylephrine], the eyelid elevation [1] is given as “causes eyelid elevation”.

In the case of `CC[C@@H]1C(=O)OC[C@@H]1Cc1cncn1C` [Pilocarpine, (3S,4R)-3-Ethyl-4((1-methyl-1H-imidazol-5-yl)methyl)dihydrofuran-2(3H)-one], the tolerability ([2]; topical concentrations above 0.5%, side effects red eyes, ocular pain, brow ache, headache) is listed as “not tolerated” and the “effect on accommodation of the eye” value ([2]; topical concentrations below 0.5%) is listed as “minimal effect”.
